# In PMC7098856 (British Journal of Clinical Pharmacology, 2020):
# “And” between values parts separate entries of the source, which are not always exact repeats. Equal values may be shown once. Read-outs that look alike come from different tables or passages of the source.
# What was measured:
# [1] = Phase 1 dose escalation study; cited from earlier work
# [2] = Safety and tolerability; format: in vivo, patients with advanced solid tumours; conditions: whole Arm B
# [3] = cited from earlier work
# [4] = cited from earlier work; remark: listed apart in the source
# [5] = population PK, cited from earlier work
# [6] = test system: P‐glycoprotein (P‐gp); conditions: in vitro; cited from earlier work
# [7] = format: in vivo, patients with advanced solid tumours; conditions: for CL/F: geometric mean (CV%)
# [8] = Safety and tolerability; format: in vivo, patients with advanced solid tumours; conditions: both arms; talazoparib alone or together with itraconazole or rifampicin
# [9] = test system: enzymes or transporters; conditions: at therapeutic exposures; cited from earlier work
# [10] = test system: breast cancer resistance protein; conditions: in vitro; cited from earlier work
# [11] = cited from earlier work; remark: listed apart in the source
# [12] = format: in vivo, patients with advanced solid tumours; conditions: for CL/F / variability of talazoparib Cmax: Arm B; for CL/F: geometric mean (CV%)
# [13] = based on urinary excretion data, single 1 mg oral dose
# [14] = coadministration of itraconazole
# [15] = talazoparib + itraconazole vs talazoparib alone
# [16] = talazoparib + rifampicin vs talazoparib alone
# [17] = talazoparib + rifampicin vs talazoparib alone, listed as talazoparib
compound,measurement,setting,value
"Cn1ncnc1[C@H]1c2n[nH]c(=O)c3cc(F)cc(c23)N[C@@H]1c1ccc(F)cc1 [Talazoparib, talazoparib]",maximum tolerated dose (MTD),[1],1 mg once daily (QD)
same,patients who discontinued treatment due to AEs,[2],11.8%
same,patients who discontinued treatment due to study-drug related AE,[2],5.9%
same,absolute bioavailability,[3]; [13],at least 54.6%
same,fraction absorbed,[3]; [13],at least 68.7%
same,hepatic metabolism,[3],minimal
same,major elimination pathway,[3],renal excretion of unchanged talazoparib
same,patients who permanently discontinued treatment due to a haematological AE,[4],1.4%
same,progression-free survival vs physician's choice of chemotherapy,[4],statistically significant and clinically meaningful improvement
same,patients with Grade 3–4 AEs (primarily haematological),[4]; patients on talazoparib,55%
same,increase in relative bioavailability of talazoparib by potent P-gp inhibitors,[5]; data pooled from multiple clinical trials,45%
same,increase in relative bioavailability of talazoparib by potent P-gp inhibitors,"[5]; first-in-human, Phase 2 and 3 studies",44.7%
same,substrate for P-gp,[6],substrate
same,"AUClast, adjusted geometric mean","[7]; Arm A talazoparib alone (reference), mixed effects model","98,532.3 h pg/mL"
same,CL/F,"[7]; Arm A, single oral 0.5 mg talazoparib + itraconazole",12 3.3 (36.0) L/h
same,Tmax,"[7]; Arm A, single oral 0.5 mg talazoparib + itraconazole, median (range)",15 1.0 (0.5–4.0) h
same,CL/F,"[7]; Arm A, single oral 0.5 mg talazoparib alone",18 4.6 (42.0) L/h
same,increase in talazoparib AUCinf relative to talazoparib alone,[7]; [14],~ 56% and 56%
same,increase in talazoparib Cmax relative to talazoparib alone,[7]; [14],~ 40% and 40%
same,AUC(0-inf),"[7]; human, plasma, oral, 0.5 mg",110 ng·h/mL
same,Cmax,"[7]; human, plasma, oral, 0.5 mg",2.09 ng/mL
same,Cmax,"[7]; human, plasma, po, 0.5 mg",2.09 ng/mL
same,Vd/F,"[7]; human, plasma, po, 0.5 mg",645 L
same,half-life,"[7]; human, plasma, po, 0.5 mg",101 h
same,"AUCinf geometric mean ratio (test/reference), % (90% CI)",[7]; [15],"156.2 (137.6, 177.4) %"
same,"AUClast geometric mean ratio (test/reference), % (90% CI)",[7]; [15],"150.7 (136.5, 166.4) %"
same,"Cmax geometric mean ratio (test/reference), % (90% CI)",[7]; [15],"139.9 (113.3, 172.9) %"
same,overall tolerability,[8],generally well tolerated
same,induction or inhibition of enzymes or transporters,[9],does not markedly induce or inhibit
same,substrate for breast cancer resistance protein,[10],substrate
same,effect of food on talazoparib AUCinf,[11],no effect
same,effect of food on talazoparib Cmax,[11],reduced
same,CL/F,[12]; single oral 1.0 mg talazoparib + rifampicin,12 5.2 (36.0) L/h
same,CL/F,[12]; single oral 1.0 mg talazoparib alone,17 4.8 (34.0) L/h
same,variability of talazoparib Cmax,[12]; talazoparib alone,53%
same,variability of talazoparib Cmax,[12]; with rifampicin administration,71%
same,increase in talazoparib Cmax relative to talazoparib alone,[12]; coadministration of rifampicin,approximately 37%
same,Cmax,"[12]; human, plasma, oral, 1 mg",6.01 ng/mL
same,Cmax,"[12]; human, plasma, po, 1 mg",6.01 ng/mL
same,Tmax,"[12]; human, plasma, po, 1 mg",1 h
same,Vd/F,"[12]; human, plasma, po, 1 mg",624 L
same,half-life,"[12]; human, plasma, po, 1 mg",92.1 h
same,"AUCinf geometric mean ratio (test/reference), % (90% CI)",[12]; [16],"102.0 (94.0, 110.7) %"
same,"AUClast geometric mean ratio (test/reference), % (90% CI)",[12]; [16],"105.4 (98.0, 113.2) %"
same,"Cmax geometric mean ratio (test/reference), % (90% CI)",[12]; [16],"136.6 (103.2, 180.9) %"
same,"AUCinf geometric mean ratio (test/reference), % (90% CI)",[12]; [17],102.0%
same,"Cmax geometric mean ratio (test/reference), % (90% CI)",[12]; [17],136.6%
